Data on seven compounds can be found in ChEMBL document CHEMBL1201862, “PubChem BioAssay data set” (2004).

Molecules are shown by their SMILES.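 Grown in 96-well plates, cells were treated for 48 hours with each compound at five concentrations. Insufficient inhibition: endpoint recorded as highest concentration tested. At the GI50, growth is halved.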 Activity calls are given as the source filed them. No stated cut-off is given here; in the data, active = GI50 up to about 1.1 µM and inactive = higher. Bounds are passed on as bounds.

Some test systems named below: HOP-62; MDA-MB-435; U-251; MDA-MB-231; HCC 2998; UACC-62; SK-MEL-28; M14; CCRF-CEM; SNB-19; OVCAR-8; SR; OVCAR-3; OVCAR-5; SK-OV-3; HT-29; RXF 393; UO-31; SF-295; K562.
What all share (assay): inhibition of tumour cell growth, NCI panel, 48 h

Take `COc1cc2c(cc1OC)C13CCN4CC5CCOC6CC(=O)N2C1C6C5CC43` (configuration not stated): the GI50 with HOP-62, in the assay with MDA-MB-435, in the assay with U-251, with MDA-MB-231, in the assay on HCC 2998 and in the assay on UACC-62 was > 100 µM (inactive) throughout. In addition, the GI50 in the assay with SK-MEL-28 was > 100 µM (inactive); in the assay with M14 it was > 100 µM (inactive); with CCRF-CEM it was 54.5 µM (inactive); with SNB-19 it was > 100 µM (inactive); with OVCAR-8, > 100 µM (inactive); with SR, 2.65 µM (inactive). The GI50 in the assay on OVCAR-3, with OVCAR-5, in the assay on SK-OV-3, in the assay on HT-29, in the assay on RXF 393 and in the assay with UO-31 was > 100 µM (inactive) in each case. In addition, the GI50 in the assay with SF-295 is > 100 µM (inactive).

Regarding `COC(=O)[C@]12CSC[C@H]1C[C@H](c1ccccc1OC)N2`, the GI50 in the assay on HOP-62, in the assay on MDA-MB-435, in the assay on U-251, in the assay on MDA-MB-231, with HCC 2998 and in the assay with UACC-62 was > 100 µM (inactive) in each case. In addition, the GI50 with SK-MEL-28, in the assay on M14, with CCRF-CEM, in the assay on SNB-19, in the assay with OVCAR-8 and in the assay with SR was > 100 µM (inactive) each time. For the same compound, the GI50 in the assay with OVCAR-3, in the assay on OVCAR-5, in the assay with K562, in the assay on SK-OV-3, with RXF 393 and in the assay with UO-31 was > 100 µM (inactive) each time. Moreover, the GI50 in the assay with SF-295 is > 100 µM (inactive).

`CCOC(=O)C(=CNC(=S)c1ccncc1)C(=O)OCC`: the GI50 in the assay on HOP-62, in the assay on MDA-MB-435, with U-251, in the assay on MDA-MB-231, with HCC 2998 and in the assay on UACC-62 was > 100 µM (inactive) throughout. The GI50 is > 100 µM (inactive) in the assay on SK-MEL-28; > 100 µM (inactive) in the assay with M14; > 100 µM (inactive) in the assay with CCRF-CEM; > 100 µM (inactive) in the assay on SNB-19; > 100 µM (inactive) in the assay with SR; 76.2 µM (inactive) in the assay on OVCAR-3. Further, the GI50 in the assay with OVCAR-5, with K562, in the assay on SK-OV-3, in the assay with RXF 393, in the assay with UO-31 and with SF-295 was > 100 µM (inactive) throughout.

Regarding `CCOC(=O)C(Cc1ccc2c(c1)CCC2)(Cc1ccc2c(c1)CCC2)C(=O)OCC`, the GI50 in the assay with HOP-62 is > 100 µM (inactive); in the assay on MDA-MB-435, 44.6 µM (inactive); with U-251 it was > 100 µM (inactive); in the assay on MDA-MB-231, 47.1 µM (inactive); with HCC 2998 it was 49 µM (inactive); with SK-MEL-28 it was 51.5 µM (inactive). Moreover, the GI50 in the assay on M14 is 96.2 µM (inactive); in the assay on CCRF-CEM, 32.2 µM (inactive); with SNB-19 it was > 100 µM (inactive); with OVCAR-8, > 100 µM (inactive); in the assay on SR, 19 µM (inactive); in the assay on OVCAR-3 it was 26.1 µM (inactive). The GI50 in the assay on OVCAR-5 was > 100 µM (inactive); in the assay with K562, 58.5 µM (inactive); with SK-OV-3 it was > 100 µM (inactive); with HT-29 it was 30.5 µM (inactive); in the assay with RXF 393, 23.4 µM (inactive); with UO-31, 71.9 µM (inactive). Also, the GI50 in the assay on SF-295 is 80.7 µM (inactive).

As for `OC(CN(CCCl)CCCl)C(O)C(O)C(O)CN(CCCl)CCCl` (configuration not stated), the GI50 in the assay on HOP-62 was > 100 µM (inactive); in the assay with MDA-MB-435, > 100 µM (inactive); in the assay with U-251 it was 37.4 µM (inactive); with MDA-MB-231, > 100 µM (inactive); in the assay with HCC 2998, > 100 µM (inactive); in the assay with UACC-62, 12.4 µM (inactive). Moreover, the GI50 in the assay with SK-MEL-28 was > 100 µM (inactive); in the assay on M14 it was > 100 µM (inactive); in the assay on CCRF-CEM, 37.6 µM (inactive); in the assay with SNB-19 it was > 100 µM (inactive); in the assay on OVCAR-8, > 100 µM (inactive); with SR, 0.624 µM (active). For the same compound, the GI50 in the assay with OVCAR-3, in the assay with OVCAR-5, in the assay on K562, in the assay with SK-OV-3, in the assay with HT-29 and in the assay with RXF 393 was > 100 µM (inactive) in each case. Moreover, in the assay on UO-31, the GI50 is 22.1 µM (inactive).

As to `CCOC(=O)C1(C(=O)OCC)C=C(c2ccccc2)N(C2OC(COC(C)=O)C(OC(C)=O)C(OC(C)=O)C2OC(C)=O)C1=S` (configuration not stated), the GI50 is > 100 µM (inactive) in the assay on HOP-62; 54 µM (inactive) in the assay with MDA-MB-435; > 100 µM (inactive) with U-251; > 100 µM (inactive) with MDA-MB-231; > 100 µM (inactive) in the assay with HCC 2998; 57.7 µM (inactive) in the assay on UACC-62. Further, the GI50 with SK-MEL-28 is > 100 µM (inactive); with M14, 56.5 µM (inactive); in the assay on CCRF-CEM, 33.9 µM (inactive); with SNB-19 it was > 100 µM (inactive); with OVCAR-8 it was > 100 µM (inactive); with SR, > 100 µM (inactive). Moreover, the GI50 was > 100 µM (inactive) with OVCAR-3; > 100 µM (inactive) in the assay on OVCAR-5; 70.3 µM (inactive) in the assay with SK-OV-3; > 100 µM (inactive) in the assay with HT-29; > 100 µM (inactive) with RXF 393; 61.5 µM (inactive) in the assay on UO-31. In addition, in the assay with SF-295, the GI50 is > 100 µM (inactive).

Turning to `CSc1c([S+](C)[O-])c2ccccc2n1C` (configuration not stated), the GI50 in the assay on HOP-62, in the assay with MDA-MB-435, in the assay on MDA-MB-231, in the assay on HCC 2998, with UACC-62 and with SK-MEL-28 was > 100 µM (inactive) in each case. Further, the GI50 in the assay on M14, in the assay on CCRF-CEM, in the assay on SNB-19, in the assay on OVCAR-8, with SR and in the assay with OVCAR-3 was > 100 µM (inactive) throughout. The GI50 in the assay on OVCAR-5, in the assay on K562, in the assay with SK-OV-3, with HT-29, in the assay with RXF 393 and in the assay with UO-31 was > 100 µM (inactive) throughout. Also, in the assay on SF-295, the GI50 is > 100 µM (inactive).
